Columns and labels:
GDP-loaded K-Ras = GDP-loaded K-Ras (Homo sapiens, UniProt P01116); test: Thermophoresis binding assay
Procedure: The thermophoresis binding assay measures the changes in the movement of KRAS along a temperature gradient as a result of compound binding. In this assay, K-Ras is fluorescently labeled and the thermophoretic movement is measured by monitoring the fluorescence distribution inside a capillary. Compounds of varies concentrations were titrated and the fluorescence distribution signal was measured after 30 seconds or until the diffusion equilibrium is stable. The apparent binding affinity Kd is calculated by fitting the normalized fluorescence distribution values along the concentration axis.

Ras protein = Ras protein (Homo sapiens, UniProt P01116); test: Nucleotide exchange rate IC50 assay (SOS1, mant-GDP), Example 18; type: biochemical
Sequence of Ras protein (P01116 1-188 isoform P01116-2): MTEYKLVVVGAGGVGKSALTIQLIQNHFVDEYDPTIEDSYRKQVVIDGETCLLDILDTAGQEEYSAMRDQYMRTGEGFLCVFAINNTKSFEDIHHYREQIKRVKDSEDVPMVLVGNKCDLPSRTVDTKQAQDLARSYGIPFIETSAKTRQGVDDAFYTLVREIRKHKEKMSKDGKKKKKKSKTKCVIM
Excerpt: The IC50 assay measures the reduction effect of a given compound on the guanine nucleotide-exchange rate of Ras protein in the presence of guanine nucleotide exchange protein SOS1, which is a Ras activator. In the assay GDP-loaded Ras is first prepared in a buffer containing the compound at certain concentration and fluorescent guanine nucleotide (mant-GDP). The guanine nucleotide exchange was initiated by the addition of the SOS1 and its rate was reflected in the rate of fluorescence change as a function of time, which was monitored by a reader. The experiment was repeated at different compound concentrations and the IC50 of the compound was defined as the compound concentration at which half of its maximal reduction effect on the guanine nucleotide exchange rate is achieved.

Sequence of GDP-loaded K-Ras (P01116 1-188 isoform P01116-2): as above

COC(=O)c1ccc2[nH]c(-n3[nH]c(CSc4nnc(C)s4)c(C)c3=O)nc2c1 [Compound 189, methyl 2-(4-methyl-3-(((5-methyl-1,3,4-thiadiazol-2-yl)thio)methyl)-5-oxo-2,5-dihydro-1H-pyrazol-1-yl)-1H-benzo[d]imidazole-5-carboxylate]
Kd (GDP-loaded K-Ras): 413 nM
IC50 (Ras protein): ~700 nM

Cc1nnc(SCc2[nH]n(-c3nc4ccccc4[nH]3)c(=O)c2C)s1 [Compound 188, 2-(1H-benzo[d]imidazol-2-yl)-4-methyl-5-(((5-methyl-1,3,4-thiadiazol-2-yl)thio)methyl)-1,2-dihydro-3H-pyrazol-3-one]
Kd (GDP-loaded K-Ras): 520 nM
IC50 (Ras protein): ~800 nM

Source: patent US20200308165A1, “Compounds as Ras Inhibitors and Use Thereof” (D.E. Shaw Research, LLC, priority 2017, published 2020)
